Measurements published in article PMC10487708, “Chlorin E6-Curcumin-Mediated Photodynamic Therapy Promotes an Anti-Photoaging Effect in UVB-Irradiated Fibroblasts” (International Journal of Molecular Sciences, 2023).
Like-named read-outs stand apart in the source and are kept apart here.

Experiments:
Hs68 cells = experiment: MTT cell viability of Hs68 cells with or without LED light; assay type: cell-based, human; conditions: for IC50: Homo sapiens, light or radiation study, Hs68 cells; for cytotoxicity for Hs68 cells: dark, up to 1000 nM
Procedure: Data were represented as mean ± SD from at least three independent experiments and analyzed by one-way ANOVA with Tukey’s post hoc test, * p < 0.01, compared with vehicle-treated control.
(§1) Hs68 and BALB/c 3T3 cell viability was measured using a 3-[4,5-dimethylthylthiazol-2-yl]-2,5 diphenyl tetrazolium bromide (MTT) assay. The cells were cultured in 24-well plates at a density of 3 × 10^4 cells per well or BALB/c 3T3 cells at a density of 1 × 10^4 cells per well. […] The Hs68 cells were then exposed to LED light (660 nm; 89 W/m^2; 20 J/cm^2) for 37 min 27 s and incubated for 3 h. […] The cells were washed and treated with MTT, after which the plates were incubated at 37 °C in the dark for 2 h. After the formation of formazan, 100 µL of DMSO was added, and the absorbance was measured at 570 nm using a microtiter plate reader (Thermo-scientific, Skanlt software 5.0, Waltham, MA, USA)

[1] = ORAC (oxygen radical absorbance capacity) assay; assay type: biochemical; conditions: Trolox equivalent
Procedure: The ORAC assay is based on the scavenging of peroxyl radicals generated by 2,2′-azobis(2-methylpropioamidine) dihydrochloride (AAPH), which prevents the degradation of the fluorescein probe. The ORAC values were calculated as the area under the curve (AUC) and expressed as µM of Trolox equivalent (TE).

[2] = MTT cytotoxicity of Ce6-curcumin derivative PDT in BALB/c 3T3 cells; assay type: cell-based, mouse; conditions: mouse, BALB/c 3T3 cells; 3 h treatment, 660 nm 20 J/cm^2, MTT after 24 h, tested 200 to 6400 nM; read-out: IC50 cytotoxicity against BALB/c 3T3 cells
Procedure: MTT assay was used to evaluate viability after 24 h. IC50 values were calculated using GraphPad Prism 5 software.
as §1

[3] = ABTS radical scavenging activity; assay type: biochemical
Procedure: […] in 2.5 mM potassium persulfate for more than 16 h to develop 7 mM 2,2′-azinobis-(3-ethylbenzothiazoline-6-sulfonic acid diammonium salt) (ABTS), and ethanol was diluted to obtain an absorbance of 0.3 at 620 nm. Each composite sample was diluted by concentration, and 100 μL of the sample was put into each well along with 50 μL each of ABTS reagent and solvent; reacted at room temperature for 10 min, and absorbance was measured at 620 nm. ABTS activity inhibition (%) = 100 − [test group-blank]/(control group-blank) × 100]

MMP-2 = experiment: Gelatin zymography of MMP-2 in UVB-exposed Hs68 cells; assay type: cell-based, human; conditions: UVB 200 mJ/cm^2, LED 20 J/cm^2, Hs68
Description: Since MMP-2 is a […] that plays an important role in photoaging, we examined the effect of Ce6-curcumin derivatives and LED treatment on the enzyme activities of UV-induced MMP-2 by gelatin zymography. On gelatin zymography, UVB irradiation led to the activation of MMP-2 in Hs68 cells, and this increase was inhibited by Ce6-curcumin derivatives along with LED treatments. On increasing the dose of the Ce6-curcumin derivatives, the MMP-2 was decreased (Figure 7A–C).
Data are expressed as mean ± SD from at least three independent experiments and were analyzed by one-way ANOVA with Tukey’s post hoc test, * p < 0.01 compared with control. ^# p < 0.05 compared with the UVB and LED-treated groups.
MMP-2 activity in cell culture medium was evaluated by gelatin zymography assay as described. After UVB (200 mJ/cm^2) irradiation, Hs68 cells were cultured for 24 h. Ce6-curcumin derivatives were diluted into a medium containing 1% FBS and cultured for 30 min. After 30 min, the LED was irradiated with 20 J/cm^2, cultured for 3 h, washed with 1× PBS, and 300 μL of FBS-free medium was added and cultured for 44 h. […] The activity of MMPs was measured by quantifying the transparent band by proteolytic activity after staining with Coomassie Brilliant Blue staining solution and further distaining with water, methanol, and acetic acid (50:40:10).

[4] = tested on: UVB-irradiated BALB/c 3T3 cells; experiment: MTT cell viability of UVB-irradiated BALB/c 3T3 cells; assay type: cell-based, mouse; conditions: UVB 200 mJ/cm^2, 0.2–8 μM, 24 h
Procedure: To investigate the proper dose of UVB irradiation, BALB/c 3T3 cells were exposed to different doses of UVB (50, 100, 200, 800, 1600 mJ/cm^2) for 24 h. […] Therefore, the dose of 200 mJ/cm^2 was used in the subsequent in vitro studies to evaluate the protective effect of Ce6-PDT. The effect of Ce6-curcumin derivatives on BALB/c 3T3 cell viability was evaluated with the MTT assay.
Figure 6 The effect of Ce6-curcumin derivatives on UVB-irradiated BALB/c 3T3 cells. (A) Cell viability of BALB/c 3T3 cells irradiated with different doses of UVB (50, 100, 200, 800, 1600 mJ/cm^2) for 24 h. […] Data were represented as mean ± SD from at least three independent experiments and analyzed by one-way ANOVA with Tukey’s post hoc test, * p < 0.01, compared with UVB-treated groups.
BALB/c 3T3 cells were seeded at a density of 1 × 10^4 cells/well in 96-well plates for 24 h. The culture medium was replaced with phosphate-buffered saline (PBS), and the cells were pretreated with UVB (200 mJ/cm^2) before being incubated for 24 h incubation in an FBS-free medium containing different concentrations of Ce6-curcumin derivatives. Cell viability was measured by MTT assay.

[5] = LED 660 nm 20 J/cm^2, MTT, read-out: Phototoxicity (IC50)
[6] = without LED irradiation, MTT, read-out: Dark Toxicity (IC50)
[7] = LED light, read-out: LED Condition (EC50, μM) ABTS radical scavenging
[8] = dark, read-out: Dark Condition (EC50, μM) ABTS radical scavenging

EC50 [3, 7] [µM] | ABTS EC50 value compared to the standard antioxidant 5-ALA hydrochloride ([3]; dark) [%] | EC50 [3, 8] [µM] | Structure (SMILES) | IC50 (Hs68 cells; [5]) [nM] | IC50 (Hs68 cells; [6]) [nM] | cytotoxicity for Hs68 cells (Hs68 cells) | ORAC LED Condition (TE, μM) ([1]; LED 20 J/cm^2, 1 μM compound) [µM] | ORAC LED Condition (TE, μM) ([1]; LED 20 J/cm^2, 10 μM compound) [µM] | ORAC Dark Condition (TE, μM) ([1]; 1 μM compound) [µM] | ORAC Dark Condition (TE, μM) ([1]; 10 μM compound) [µM] | IC50 [2] [nM] | UVB-induced MMP-2 expression (gelatin zymography) (MMP-2; 200 nM) | concentration from which cytotoxicity was shown in UVB-irradiated BALB/c 3T3 cells [4] [µM] | phototoxicity toward human dermal fibroblasts, Hs68 (Hs68 cells; with PDT, up to a dose of 1000 nM) | UVB-induced MMP-2 expression (gelatin zymography) (MMP-2; 100 nM) | cell viability of UVB-irradiated BALB/c 3T3 cells [4]
22.3 ± 2.62 | ~74 | 15.51 ± 0.01 | C=Cc1c(C)c2cc3nc(c(CC(=O)OC)c4[nH]c(cc5nc(cc1[nH]2)C(C)=C5CC)c(C)c4C(=O)NCCCOCCOCCOCCCNC(=O)CCCC(=O)Oc1ccc(/C=C/C(=O)CC(=O)/C=C/c2ccc(O)c(OC)c2)cc1OC)C(CCC(=O)OC)C3C (centres unmarked) [Ce6-diPEG-curcumin] | 693 | ≥ 1000 | almost no cytotoxicity | 0.85 | 27.98 | 20.85 | 30.32 | 830 | highest attenuation of MMP-2 expression | ≥ 4 |  |  | 
34.9 ± 8.16 |  | 18.9 ± 3.04 | C=Cc1c(C)c2cc3nc(c(CC(=O)OC)c4[nH]c(cc5nc(cc1[nH]2)C(C)=C5CC)c(C)c4C(=O)NCCCNC(=O)CCCC(=O)Oc1ccc(/C=C/C(=O)CC(=O)/C=C/c2ccc(O)c(OC)c2)cc1OC)C(CCC(=O)OC)C3C (centres unmarked) [Ce6-propane-curcumin] | ≥ 1000 | ≥ 1000 | almost no cytotoxicity | 2.78 | 30.66 | 20.11 | 26.83 | 2040 |  |  | no phototoxicity | significant reductions | not affected
